Test results taken from patent US20090131513A1, “ANTI-INFLAMMATORY MODALITIES” (Novogen Research Pty Ltd., priority 2005, published 2009).

Legend:
[1] = test system: eicosanoid synthesis by the inflamed colon; assay: PGE2 and TXB2 production by cultured colons from DSS colitis mice (Experiment 4); format: in vivo
Experimental: Groups of mice (n=5) were dosed once daily with Compound 11 mg/kg or vehicle throughout the experiment, and killed either on day 6, 9 or 13. Colons were removed, opened longitudinally and washed in PBS with pen/strep (100 U/ml/100 μg/ml, Invitrogen) with added fungizone (2.5 ug/ml, Invitrogen). They were then cut into small portions and approximately 100 mg colon was placed into one well of a 24-well plate either in the presence or absence of ConA (10 μg/ml, Sigma) containing 1 ml modified RPMIc (pen/strep and fungizone as above) for 18-24 hours. Supernatant was collected, centrifuged and stored at −80° C. PGE2 and TXB2 in the culture supernatants were measured in triplicate by ELISA (Cayman Chemical).

[2] = test system: contractile response of the aortic ring to noradrenaline; assay: Vasodilatory activity in the rat aortic ring assay; design: species or system rat (Sprague-Dawley); settings: test compound 1 μg/ml
Experimental: The vasodilatory capacity of test compounds was examined ex vivo using the rat aortic ring assay.
Male Sprague-Dawley rats (250±50 g) were euthanized with 80% CO2 and 20% O2. The thoracic aorta was excised and quickly mounted in organ-baths as described (Chin-Dusting et al. 2001). Full concentration-contractile curves were obtained to noradrenaline ([…]) with and without test compounds delivered at a concentration of 1 μg/ml. Experiments were repeated in n=5 different rings from 5 different animals. Only one compound at any one concentration was tested on any one ring from any one animal. Sigmoidal dose response curves were fitted for the data and the logEC50 calculated (Prism 4, GraphPad Software). The difference in these values between the presence and absence of test compound was calculated using a two-tailed paired t test. The effects of β-oestrodiol and vehicle alone were examined as a positive and negative control respectively.

[3] = test system: Sprague Dawley rats; assay: Oral toxicity of Compound 1 administered daily for 11 days; format: in vivo; settings: 300 mg/kg and 1000 mg/kg oral daily for 11 days in CMC 0.1%
Experimental: Oral toxicity of Compound 1 when administered daily for 11 days was investigated. Compound 1 in CMC 0.1% as administered at the very high doses of 300 mg/kg and the limit dose of 1000 mg/kg to groups of four Sprague Dawley rats (two of each gender). Vehicle was administered to a third group.
The formulation of Compound 1 in CMC 0.1% was stable over a seven day period at both 4° C., 25° C. and 40° C. Fresh batches of Compound 1 were supplied after day seven. Bodyweights were measured immediately before administration, then at day eight and again at culling on day 12. All rats were observed daily for signs of toxicity throughout the experimental period. At necropsy, gross examination of the external surface of the body, all orifices and the thoracic and abdominal cavities and their contents was carried out. Liver, kidney, adrenals, spleen and gonads were weighed. Terminal hematology, serum biochemistry and histology of the liver, spleen and bone marrow was done.

[4] = test system: DSS-induced colitis; assay: Murine model of DSS-induced colitis; format: in vivo, mice (BALB/c); settings: for maximum mean weight loss: vehicle 5%; for day at which clinical signs became evident: vehicle day 5; for colitis, in words: Experiment 1, 1 mg/kg throughout until day 17; for mean clinical score compared with vehicle, in words: Experiment 1, day 11; for day of switch from mean body weight loss to mean body weight gain: Experiment 1, vehicle day 15; for inflammation, in words: Experiment 2, 1 mg/kg for 10 days prior to DSS only; for colonic inflammation, in words: series of experiments, 1.0-1.25 mg/kg single oral dose per day
Experimental: Female BALB/c mice, 6-7 weeks old, were housed for a minimum of one week before any experimental work began. To induce colitis, dextran sulphate sodium (DSS—molecular weight 40 kD, TdB Consultancy AB, Uppsala, Sweden (Dieleman et al. 1994), was administered fresh daily in the drinking water at a concentration of 4.5-5% for 5 days (Okayasu et al. 1990), after which water alone was given. This regime induced mild colitis, evidenced by diarrhea and rectal bleeding, the severity of which was scored, as well as a reduction in the length of the colon. Histologically, colonic inflammation was evidenced by ulceration and an infiltration of neutrophils into the mucosa, which was also scored. The systemic effect of the colitis causes weight loss, which was also monitored.
Either vehicle (PEG 400:PBS1:1) Compounds 1 or 4 were administered at a dose rate of 1 mg/kg throughout the experiment until the mice were killed at day 17.
Either Compounds 1 and 2, at a dose of 1 mg/kg or vehicle were administered for 10 days prior to DSS being added to the drinking water to induce colitis, after which test compound was stopped. DSS was administered for 5 days and the mice killed 8 days later (day 23).
Either the cis or the trans isomers of Compound 3 (Compound 3a and 3b respectively) at 1.25 mg/kg or vehicle were administered throughout the experiment until the mice were killed at day 17.

[5] = test system: inflammed rat air pouches (serum-treated zymozan); assay: Rat air pouch assay; format: in vivo, rats (Dark Agouti); settings: 0.5 ml of 100 μM into pouch; for Polymorphs in tissue sections (per 100 squares): 4 h; for Leucocytes in lavage fluid (×10^−7): lavage at 4 h
Experimental: An alternative assay used to measure anti-inflammatory efficacy is the air pouch model which involves the repeated subcutaneous injection of air into the dorsum of rats followed 24 h later by the intrapouch injection of an inflammatory stimulus (Gilroy et al. 1998).
Air pouches were raised on the dorsum of female Dark Agouti rats, approximately 7 weeks of age. To promote the formation of a cellular membrane lining the inside of each pouch, the pouches were maintained by re-inflating on days 2 and 5 after the initial injection of air. On re-inflation, the pouch was first deflated to ensure the needle was positioned correctly, before being re-inflated with 2 mL of sterile air. Using this protocol, the pouches remained inflated until use on day 7, when they were injected with 0.5 ml of either test compound at 100 μM or vehicle control. After 15 min, air pouches were injected with serum-treated zymozan (STZ-500 μg). Lavage of the air pouch (4×2 ml lavages) was performed at 4 h and leucocytes counted, after which the rats were killed, the air pouch excised and processed in formalin for histology. The sections were blinded to the person counting. Using a graticule with 100 squares and the 40× objective, the number of polymorphs were counted in the pouch lining at 10 different and non-adjacent sites. Group sizes were 5-6 rats. Data were analysed for statistical significance within each experiment and using an unpaired t test.

[6] = test system: inflammed rat air pouches (serum-treated zymozan); assay: Rat air pouch assay; format: in vivo, rats (Dark Agouti); settings: At 1 mM application
[7] = test system: female BALB/c mice; assay: Absence of gastrointestinal toxicity, gavage for 10 days; format: in vivo; settings: 5 mg/kg via gavage for 10 days
Experimental: Compound 2 at 5 mg/kg (n=3) or vehicle (PEG 400:PBS1:1; n=2) was administered via gavage to female BALB/c mice for 10 days. […] Histology of cecum and colon were normal.
The diastereoisomeric mixture of Compounds 3a and 3b in PEG 400:PBS1:1 was administered to 7 week old female BALB/c mice (n=8) by gavage at 20 mg/kg daily for 10 days. There was no vehicle control group for comparison.
Compound 4 at 5 mg/kg (n=3) or vehicle (n=2, PEG:PBS 1:1) was administered via gavage to female BALB/c mice for 10 days. […] Histology of cecum and colon were normal.

| Structure (SMILES) | colon length compared with vehicle (trend), in words ([4]; Experiment 1, 1 mg/kg oral) | mean histology scores, in words ([4]; Experiment 1, 1 mg/kg oral) | maximum mean weight loss ([4]; Experiment 1, 1 mg/kg oral) [%] | day at which clinical signs became evident ([4]; Experiment 1, 1 mg/kg oral) [days] | colitis, in words [4] | mean clinical score compared with vehicle, in words [4] | day of switch from mean body weight loss to mean body weight gain [4] [days] | inflammation, in words [4] | colonic inflammation, in words [4] | Polymorphs in tissue sections (per 100 squares) [5] [per 100 squares] | Leucocytes in lavage fluid (×10^−7) [5] | number of polymorphs in the tissue sections, in words [6] | adverse clinical signs [7] | body weight changes versus vehicle [7] | gross pathological changes at necropsy [7] | histology of cecum and colon [7] | further results |
| --- | --- | --- | --- | --- | --- | --- | --- | --- | --- | --- | --- | --- | --- | --- | --- | --- | --- |
| O=C1c2ccc(O)c(Br)c2OCC1c1ccc(O)cc1 (stereo not drawn) [Compound 1, 3-(4-hydroxyphenyl)-7-hydroxy-8-bromo-chroman-4-one] | longer | less colitis | 2 | 6 | decreased colitis | significantly lower | 10 | Inflammation was reduced | reduced colonic inflammation | 31.0 ± 7.25 | 0.89 ± 0.42 ×10^−7 |  |  |  |  |  | PGE2 and TXB2 responses of colons cultured in the presence of ConA ([1]; ConA 10 μg/ml): reduce these responses, although not significantly so; TXB2 production by colons versus DSS + vehicle ([1]; cultured in the absence of mitogenic stimulation, day 6 and day 9 (p<0.05)): less TXB2; PGE2 production by colons versus DSS + vehicle ([1]; cultured in the absence of mitogenic stimulation, day 9 and day 13): less PGE2; contractile response (logEC50) of the aortic ring to noradrenaline compared with vehicle [2]: significantly inhibited; evidence of toxicity [3]: no evidence of toxicity of any kind; comparative anti-inflammatory activity between test compounds ([4]; Experiment 1, 1 mg/kg): better anti-inflammatory activity; ulceration of the colonic epithelium compared with vehicle ([4]; Experiment 1, 1 mg/kg oral): statistically significant (p=0.0135) less ulceration; colon length versus control group not given DSS ([4]; Experiment 2, pre-dosed 1 mg/kg): not statistically different in length from those of the control group |
| Oc1ccc(C2COc3c(ccc(O)c3O)C2O)cc1 (stereo not drawn) [Compound 2] |  |  |  |  |  |  |  | Inflammation was reduced | reduced colonic inflammation | 14.3 ± 5.7 | 0.68 ± 0.36 ×10^−7 | suppressed the number of polymorphs | no adverse clinical signs | similar | no gross pathological changes | normal | body weight versus vehicle ([4]; Experiment 2, day 22): weighed significantly more than those receiving vehicle (p=0.0291); body weight loss associated with DSS-induced colonic inflammation ([4]; Experiment 2, pre-dosed 1 mg/kg for 10 days): reduced the body weight loss |
| O=C1c2cc(Cl)c(O)cc2OCC1c1ccc(O)cc1 (stereo not drawn) [Compound 4] | longer | less colitis | 1 | 6 | decreased colitis | significantly lower | 12 |  | reduced colonic inflammation | 23.4 ± 8.8 | 1.00 ± 0.38 ×10^−7 | suppressed the number of polymorphs | no adverse clinical signs | similar | no gross pathological changes | normal |  |
